The text below walks through data of paper PMC7440666, “Cryo-EM structure of the human concentrative nucleoside transporter CNT3” (PLoS Biology, 2020).

Data set [1] deals with T1, hCNT3 (full-length wild-type) (Homo sapiens, UniProt Q9HAS3).
T1 construct: gene SLC28A3; full-length, C-terminal Strep-tag, codon-optimized cDNA, baculovirus/Sf9 expression, purified in DDM, homotrimer
T1 sequence (Q9HAS3 1-691): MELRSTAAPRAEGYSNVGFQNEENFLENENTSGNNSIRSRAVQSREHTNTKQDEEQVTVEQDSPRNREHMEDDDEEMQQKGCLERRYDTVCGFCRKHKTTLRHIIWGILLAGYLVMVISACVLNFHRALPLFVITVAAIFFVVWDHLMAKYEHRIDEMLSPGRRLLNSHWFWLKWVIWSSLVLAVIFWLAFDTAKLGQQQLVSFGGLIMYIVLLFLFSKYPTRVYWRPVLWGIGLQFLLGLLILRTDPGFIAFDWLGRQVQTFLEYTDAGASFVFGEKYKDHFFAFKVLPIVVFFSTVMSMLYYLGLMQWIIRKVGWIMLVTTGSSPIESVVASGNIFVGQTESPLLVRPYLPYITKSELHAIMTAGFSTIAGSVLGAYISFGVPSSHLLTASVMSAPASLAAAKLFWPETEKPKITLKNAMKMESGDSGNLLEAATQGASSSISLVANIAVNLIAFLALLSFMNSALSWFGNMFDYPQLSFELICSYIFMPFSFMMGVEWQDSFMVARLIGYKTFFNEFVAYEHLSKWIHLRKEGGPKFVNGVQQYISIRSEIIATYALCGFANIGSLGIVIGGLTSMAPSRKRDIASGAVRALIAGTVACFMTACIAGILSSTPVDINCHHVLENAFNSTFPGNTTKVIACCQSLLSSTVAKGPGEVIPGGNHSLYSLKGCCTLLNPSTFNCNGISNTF
The data set is described as follows: isothermal titration calorimetry, one-site model. To be noted: read-out: binding affinity.

Data set [2] has as its target T2, hCNT3 (full-length wild-type) (Homo sapiens, UniProt Q9HAS3, N565A).
T2 construct: gene SLC28A3; full-length, C-terminal Strep-tag, codon-optimized cDNA, baculovirus/Sf9 expression, purified in DDM, homotrimer
T2 sequence (Q9HAS3 1-691 N565A): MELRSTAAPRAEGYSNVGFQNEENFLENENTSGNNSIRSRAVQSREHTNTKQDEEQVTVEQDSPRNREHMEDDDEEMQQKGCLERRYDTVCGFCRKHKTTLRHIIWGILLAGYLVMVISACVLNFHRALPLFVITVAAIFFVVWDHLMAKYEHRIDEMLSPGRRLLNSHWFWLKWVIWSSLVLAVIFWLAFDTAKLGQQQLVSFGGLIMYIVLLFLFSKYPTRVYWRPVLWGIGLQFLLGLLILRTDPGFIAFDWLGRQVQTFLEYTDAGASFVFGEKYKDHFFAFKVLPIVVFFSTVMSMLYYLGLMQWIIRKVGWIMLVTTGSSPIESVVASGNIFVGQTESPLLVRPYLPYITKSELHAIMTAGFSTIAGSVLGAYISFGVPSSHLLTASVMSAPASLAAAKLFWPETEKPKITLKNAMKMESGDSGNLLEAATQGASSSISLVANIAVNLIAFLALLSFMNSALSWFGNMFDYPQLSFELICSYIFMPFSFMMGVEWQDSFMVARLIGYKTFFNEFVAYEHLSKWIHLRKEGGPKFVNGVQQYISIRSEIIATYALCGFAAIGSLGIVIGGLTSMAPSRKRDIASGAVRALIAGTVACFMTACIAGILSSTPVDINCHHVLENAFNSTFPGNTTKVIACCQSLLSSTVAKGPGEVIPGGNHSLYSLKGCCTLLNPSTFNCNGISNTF
The data set is described as follows: isothermal titration calorimetry, one-site model. The class given is binding.

The target in data set [3] is T3, hCNT3 (full-length wild-type) (Homo sapiens, UniProt Q9HAS3, E343A).
T3 construct: gene SLC28A3; full-length, C-terminal Strep-tag, codon-optimized cDNA, baculovirus/Sf9 expression, purified in DDM, homotrimer
T3 sequence (Q9HAS3 1-691 E343A): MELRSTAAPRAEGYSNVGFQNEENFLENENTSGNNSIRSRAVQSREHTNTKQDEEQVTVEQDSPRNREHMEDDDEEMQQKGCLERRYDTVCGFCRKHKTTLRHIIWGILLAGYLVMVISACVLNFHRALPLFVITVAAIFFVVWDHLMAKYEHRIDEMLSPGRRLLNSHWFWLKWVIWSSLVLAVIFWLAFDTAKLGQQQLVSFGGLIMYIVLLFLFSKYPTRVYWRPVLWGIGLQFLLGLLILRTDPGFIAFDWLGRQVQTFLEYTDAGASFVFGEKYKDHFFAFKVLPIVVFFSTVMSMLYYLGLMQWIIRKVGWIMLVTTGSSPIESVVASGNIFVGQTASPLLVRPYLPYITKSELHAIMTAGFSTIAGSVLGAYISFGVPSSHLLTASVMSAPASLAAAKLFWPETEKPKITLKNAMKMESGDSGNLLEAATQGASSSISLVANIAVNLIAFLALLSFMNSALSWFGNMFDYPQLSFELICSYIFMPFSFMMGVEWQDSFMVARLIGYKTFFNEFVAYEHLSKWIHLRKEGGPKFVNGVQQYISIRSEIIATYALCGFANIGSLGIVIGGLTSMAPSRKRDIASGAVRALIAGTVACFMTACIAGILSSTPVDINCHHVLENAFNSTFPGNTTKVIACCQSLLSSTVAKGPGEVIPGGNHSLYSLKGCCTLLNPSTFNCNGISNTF
The data set is described as follows: isothermal titration calorimetry, one-site model. The following applies: read-out: binding affinity.

For data set [4], the target named is T4, CNT3ins (Δ1–69) (Homo sapiens, UniProt Q9HAS3).
T4 construct: gene SLC28A3; lacks the 69 N-terminal residues, C-terminal Strep-tag, baculovirus/Sf9 expression, purified in DDM for ITC, homotrimer
T4 sequence (Q9HAS3 70-691): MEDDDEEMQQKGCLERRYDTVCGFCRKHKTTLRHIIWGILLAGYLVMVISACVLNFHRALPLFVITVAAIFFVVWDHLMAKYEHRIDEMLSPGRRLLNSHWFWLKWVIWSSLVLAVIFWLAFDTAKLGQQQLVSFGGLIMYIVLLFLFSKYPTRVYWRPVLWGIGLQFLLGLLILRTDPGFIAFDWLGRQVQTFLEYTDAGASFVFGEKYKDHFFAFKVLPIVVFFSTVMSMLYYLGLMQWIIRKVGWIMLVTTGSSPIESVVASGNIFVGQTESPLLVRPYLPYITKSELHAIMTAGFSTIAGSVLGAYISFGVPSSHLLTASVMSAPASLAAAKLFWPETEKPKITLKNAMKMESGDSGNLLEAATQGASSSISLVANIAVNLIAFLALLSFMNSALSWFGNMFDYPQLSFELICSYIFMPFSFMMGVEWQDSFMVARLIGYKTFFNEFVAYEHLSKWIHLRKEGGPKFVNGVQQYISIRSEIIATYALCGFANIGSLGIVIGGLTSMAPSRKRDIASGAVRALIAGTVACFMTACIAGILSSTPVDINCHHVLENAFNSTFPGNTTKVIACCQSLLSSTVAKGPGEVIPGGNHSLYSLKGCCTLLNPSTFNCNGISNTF
The data set is described as follows: isothermal titration calorimetry, one-site model. The following applies: read-out: binding affinity.

Data set [5] deals with the molecule itself. The data set is described as follows: cryo-EM structure; purified CNT3ins (Δ1–69) at 6 mg/ml in 25 mM Tris pH 8.0, 150 mM NaCl, 0.1% digitonin; nucleoside-free; reconstruction with C3 symmetry.

With `Nc1ccn([C@@H]2O[C@H](CO)[C@@H](O)[C@H]2O)c(=O)n1` [cytidine], the Kd in data set [1] is approximately 260 µM. Consider `Cc1cn([C@H]2C[C@H](O)[C@@H](CO)O2)c(=O)[nH]c1=O` [thymidine], for which the Kd in data set [1] is approximately 603 µM. As to `O=c1ccn([C@@H]2O[C@H](CO)[C@@H](O)[C@H]2O)c(=O)[nH]1` [uridine], the Kd in data set [2] is approximately 280 µM; in data set [3], approximately 1190 µM; in data set [1], approximately 325 µM; in data set [4] it was approximately 368 µM.

B1: CNT3ins, the truncated isoform (Δ1–69) of human concentrative nucleoside transporter 3 (hCNT3) (domain or fragment, UniProt Q9HAS3 70-691, looked up)
chain: MEDDDEEMQQKGCLERRYDTVCGFCRKHKTTLRHIIWGILLAGYLVMVISACVLNFHRALPLFVITVAAIFFVVWDHLMAKYEHRIDEMLSPGRRLLNSHWFWLKWVIWSSLVLAVIFWLAFDTAKLGQQQLVSFGGLIMYIVLLFLFSKYPTRVYWRPVLWGIGLQFLLGLLILRTDPGFIAFDWLGRQVQTFLEYTDAGASFVFGEKYKDHFFAFKVLPIVVFFSTVMSMLYYLGLMQWIIRKVGWIMLVTTGSSPIESVVASGNIFVGQTESPLLVRPYLPYITKSELHAIMTAGFSTIAGSVLGAYISFGVPSSHLLTASVMSAPASLAAAKLFWPETEKPKITLKNAMKMESGDSGNLLEAATQGASSSISLVANIAVNLIAFLALLSFMNSALSWFGNMFDYPQLSFELICSYIFMPFSFMMGVEWQDSFMVARLIGYKTFFNEFVAYEHLSKWIHLRKEGGPKFVNGVQQYISIRSEIIATYALCGFANIGSLGIVIGGLTSMAPSRKRDIASGAVRALIAGTVACFMTACIAGILSSTPVDINCHHVLENAFNSTFPGNTTKVIACCQSLLSSTVAKGPGEVIPGGNHSLYSLKGCCTLLNPSTFNCNGISNTF
notes: human concentrative nucleoside transporter 3 (hCNT3, SLC28A3), truncated isoform lacking the 69 N-terminal residues (Δ1–69); codon-optimised cDNA; density resolved for residues 100–614; also called CNT3ins (Δ1–69); SLC28A3; source: Sf9 insect cells (baculovirus, pFastBac1), purified (StrepTactin Sepharose, Superose 6 SEC) in digitonin or DDM
Regarding B1, the “stoichiometry N” value in data set [5] was determined as 3.
